Experimental data: patent US9687467B2, “Diagnosis and treatment of taxane-resistant cancers” (Children's Medical Center Corporation, priority 2011, dated 2017)

Test system: T20.2 xenografts
Assay: Retransplantation xenograft, paclitaxel-resistant clone
Assay type: in vivo, nude mice
Experimental: FIGS. 6A-6C are a series of graphs showing data that validate the A549 in vivo paclitaxel resistance model. (FIG. 6A) Tumor cell lines established after an initial round of inoculation and treatment with either vehicle (T28.2) or 15 mg/kg paclitaxel (T20.2) were harvested during log-phase growth and reinjected subcutaneously into the flanks of nude mice. When the average tumor volume was ˜120 mm^3, vehicle (open circles or squares) or 15 mg/kg paclitaxel (closed circles or squares) was administered intraperitoneally every other day. Treatment was continued until tumors reached approximately four times their initial volume. Each curve represents the average tumor growth±s.e.m. for 10 mice per group. […] Each bar represents the average tumor growth±s.e.m. for 10 mice per group. NS: not significant, *P<0.05 as determined by Wilcoxon's rank sum test. (FIG. 6C) Tumors were harvested, cultured in vitro and cell viability was assessed using the MTT assay. Values are presented as percentage of cell survival in paclitaxel-treated cells relative to untreated cells. White bars represent LC50s from tumor cell lines established from T28.2 tumors treated with vehicle. Black bars represent LC50s from cell lines established from T20.2 tumors treated with paclitaxel. Shown are the mean±s.e.m. of two independent experiments, each performed in triplicate. *P<0.05 as determined by Wilcoxon's rank sum test. […]

With `CC(=O)O[C@H]1C(=O)[C@@]2(C)[C@H]([C@H](OC(=O)c3ccccc3)[C@]3(O)C[C@H](OC(=O)[C@H](O)[C@@H](NC(=O)c4ccccc4)c4ccccc4)C(C)=C1C3(C)C)[C@]1(OC(C)=O)CO[C@@H]1C[C@@H]2O` [paclitaxel] the “tumor growth after paclitaxel treatment” value (15 mg/kg paclitaxel i.p.) was “only a slight delay in tumor growth” and the “reduction of relative tumor burden at the end of the experiment” value (15 mg/kg paclitaxel i.p. vs vehicle) was 1.4 fold.
